Source: patent publication US10526352B2, “Tricyclic benzoxaborole compounds and uses thereof” (GlaxoSmithKline Intellectual Property (No.2) Limited, priority 2013, dated 2020)
Converted amounts (≈) assume the structure as drawn.

Tests used:
[1] = test system: M. tuberculosis standard strain Mtb H37Rv; assay: MIC determination against mycobacteria (resazurin, Middlebrook 7H9); type: cell-based, Mycobacterium tuberculosis; conditions: Mycobacterium tuberculosis, H37RV; read-out: Mtb H37Rv MIC (B)
[2] = test system: E. coli K12 tolC::Tn10; assay: General antimicrobial activity assay (CLSI broth microdilution); type: cell-based, Escherichia coli
Procedure: (§1) Whole-cell antimicrobial activity was determined by broth microdilution using the Clinical and Laboratory Standards Institute (CLSI) recommended procedure, Document M7-A7, “Methods for Dilution Susceptibility Tests for Bacteria that Grow Aerobically”.

[3] = test system: E. coli K12; assay: as above; type: cell-based, Escherichia coli
Procedure: as §1

[4] = test system: A. baumannii ATCC 17978; assay: as above; type: cell-based, Acinetobacter baumannii
Procedure: as §1

[5] = test system: P. aeruginosa PA01; assay: as above; type: cell-based, Pseudomonas aeruginosa
Procedure: as §1

[6] = molecular target: Human cyto LeuRS (Homo sapiens, UniProt Q9P2J5); assay: LeuRS aminoacylation assay, IC50 determination; type: biochemical
Human cyto LeuRS, sequence (Q9P2J5 whole entry): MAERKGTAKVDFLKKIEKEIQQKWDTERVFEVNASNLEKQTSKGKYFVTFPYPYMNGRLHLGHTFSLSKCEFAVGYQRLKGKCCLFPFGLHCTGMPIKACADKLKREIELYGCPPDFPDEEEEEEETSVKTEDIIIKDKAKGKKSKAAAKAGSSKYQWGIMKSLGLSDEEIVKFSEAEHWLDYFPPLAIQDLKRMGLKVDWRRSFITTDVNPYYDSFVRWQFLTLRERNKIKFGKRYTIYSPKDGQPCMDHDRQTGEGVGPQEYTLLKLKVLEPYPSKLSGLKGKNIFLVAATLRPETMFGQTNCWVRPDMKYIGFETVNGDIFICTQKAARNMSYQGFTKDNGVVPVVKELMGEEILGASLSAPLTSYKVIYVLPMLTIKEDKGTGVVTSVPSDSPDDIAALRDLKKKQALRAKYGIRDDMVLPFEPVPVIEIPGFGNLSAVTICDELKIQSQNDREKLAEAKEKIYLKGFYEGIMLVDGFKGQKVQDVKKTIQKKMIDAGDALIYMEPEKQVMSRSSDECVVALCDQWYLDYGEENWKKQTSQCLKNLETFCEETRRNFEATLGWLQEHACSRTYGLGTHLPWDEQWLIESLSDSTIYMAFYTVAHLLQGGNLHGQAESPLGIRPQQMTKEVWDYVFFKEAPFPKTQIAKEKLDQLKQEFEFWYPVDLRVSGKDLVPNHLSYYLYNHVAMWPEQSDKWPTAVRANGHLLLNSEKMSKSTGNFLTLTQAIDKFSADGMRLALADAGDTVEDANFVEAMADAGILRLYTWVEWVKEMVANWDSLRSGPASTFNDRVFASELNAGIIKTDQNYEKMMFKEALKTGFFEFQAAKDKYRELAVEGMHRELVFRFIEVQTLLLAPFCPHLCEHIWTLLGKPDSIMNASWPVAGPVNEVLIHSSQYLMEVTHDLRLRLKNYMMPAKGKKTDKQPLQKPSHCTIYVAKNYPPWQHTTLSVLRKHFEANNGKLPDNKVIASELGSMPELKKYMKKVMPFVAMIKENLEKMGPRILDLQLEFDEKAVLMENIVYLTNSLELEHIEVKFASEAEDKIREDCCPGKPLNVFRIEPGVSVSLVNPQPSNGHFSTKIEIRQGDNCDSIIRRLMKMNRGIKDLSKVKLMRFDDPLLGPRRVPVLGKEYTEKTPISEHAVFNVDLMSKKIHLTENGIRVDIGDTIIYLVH

[7] = test system: HepG2 cells

CCOc1ccc(Cl)c2c1B(O)O[C@@H]2CN [Example C6-Cl, reference compound]
MIC [1]: 0.1 µM (≈ 0.0241 µg/mL)
MIC: E. coli K12 tolC::Tn10 [2]: 64 µg/mL (≈ 265 µM)
MIC: E. coli K12 [3]: 64 µg/mL (≈ 265 µM)
MIC: A. baumannii ATCC 17978 [4]: 64 µg/mL (≈ 265 µM)
MIC: P. aeruginosa PA01 [5]: 64 µg/mL (≈ 265 µM)
IC50 [6]: 38.8 µM
Selectivity Index (A/B) [7]: 363
HepG2 cell 48 h Tox50 (A) ([7]; 48 h): 36.3 µM
